The target of assay [1] is T1, human recombinant DP1 receptor (Homo sapiens, UniProt Q13258).
T1 sequence (Q13258 1-359): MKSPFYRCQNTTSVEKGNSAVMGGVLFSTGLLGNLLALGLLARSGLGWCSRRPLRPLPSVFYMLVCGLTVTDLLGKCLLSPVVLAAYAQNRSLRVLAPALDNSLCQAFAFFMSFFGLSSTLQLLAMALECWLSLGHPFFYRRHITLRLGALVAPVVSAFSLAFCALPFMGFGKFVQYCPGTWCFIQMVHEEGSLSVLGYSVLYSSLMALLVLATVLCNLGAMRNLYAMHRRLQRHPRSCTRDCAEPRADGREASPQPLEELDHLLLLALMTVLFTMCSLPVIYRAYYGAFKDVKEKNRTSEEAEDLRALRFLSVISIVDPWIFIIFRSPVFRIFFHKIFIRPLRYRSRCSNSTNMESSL
The experiment in a line: [3H]PGD2 displacement, membranes. The class given is binding.

Assay [2] addresses T2, human recombinant EP1 receptor (Homo sapiens, UniProt P34995).
T2 sequence (P34995 1-402): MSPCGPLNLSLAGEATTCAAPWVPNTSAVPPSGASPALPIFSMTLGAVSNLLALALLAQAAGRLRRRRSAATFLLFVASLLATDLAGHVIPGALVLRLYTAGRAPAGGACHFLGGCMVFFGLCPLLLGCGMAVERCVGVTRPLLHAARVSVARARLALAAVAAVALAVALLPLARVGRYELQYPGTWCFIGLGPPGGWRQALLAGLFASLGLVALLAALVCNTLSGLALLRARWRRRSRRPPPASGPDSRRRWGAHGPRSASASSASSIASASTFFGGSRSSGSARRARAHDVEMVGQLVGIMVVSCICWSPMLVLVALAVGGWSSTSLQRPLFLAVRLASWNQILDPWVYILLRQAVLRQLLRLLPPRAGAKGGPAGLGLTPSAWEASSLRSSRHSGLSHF
The experiment in a line: [3H]PGE2 displacement, membranes. The class given is binding.

What is called Ki is the dissociation constant of the complex between target and ligand, obtained from inhibition or displacement. For the compound `CCCCC[C@H](O)/C=C/[C@H]1C(=O)C[C@H](O)[C@@H]1C/C=C\CCCC(=O)O` [PGD2], the Ki in assay [1] is 2.51 nM. In the case of `CCCCC[C@H](O)/C=C/[C@H]1[C@H](O)CC(=O)[C@@H]1C/C=C\CCCC(=O)O` [PGE2], the Ki in assay [2] is 50.1 nM.

Source of the values: paper PMC6365485 (British Journal of Pharmacology, 2019).
